Values of other authors in patent US20230131493A1, “METHODS OF TREATING AGITATION ASSOCIATED WITH ALZHEIMER'S DISEASE” (Avanir Phrmaceuticals Inc., priority 2021, published 2023).
Where a name gives a salt, the structure may show the parent alone.

Legend:
[1] = a P-glycoprotein substrate
[2] = target: sigma-1 receptor (Homo sapiens, UniProt Q99720)
Chain of sigma-1 receptor (Q99720 whole entry, species assumed): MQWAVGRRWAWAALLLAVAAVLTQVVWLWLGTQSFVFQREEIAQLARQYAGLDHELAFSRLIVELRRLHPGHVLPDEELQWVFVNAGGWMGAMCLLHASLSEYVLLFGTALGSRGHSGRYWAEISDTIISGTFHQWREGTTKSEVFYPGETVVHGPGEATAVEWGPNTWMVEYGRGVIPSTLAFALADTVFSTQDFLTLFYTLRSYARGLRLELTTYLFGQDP

Structure (SMILES) | serum digoxin levels on concomitant administration with digoxin [1] | receptor binding [2]
C=C[C@H]1CN2CC[C@H]1C[C@@H]2[C@@H](O)c1ccnc2ccc(OC)cc12.C=C[C@H]1CN2CC[C@H]1C[C@@H]2[C@@H](O)c1ccnc2ccc(OC)cc12.O=S(=O)(O)O [Quinidine, quinidine sulfate] | may be as much as doubled | 
[2H]C([2H])([2H])Oc1ccc2c(c1)[C@]13CCCC[C@@H]1[C@H](C2)N(C([2H])([2H])[2H])CC3 [d6-DM, deuterated [d6]-dextromethorphan hydrobromide] |  | binds to the sigma-1 receptor
